Results as given in patent US8338490B2, “Composition for repelling and deterring vermin” (Novartis AG, priority 2006, dated 2012).

Tests used:
[1] = system: various parasites, e.g. ticks; assay: Arena test: general method for testing vermin-deterring substances; conditions: 1 to 100 μg/cm^2 on filter paper, video evaluation
Method: Arena Test: General Method for Testing Vermin-Deterring Substances
This method is carried out in titre plates having 6 wells with a cross-section of 5 cm each, using a computer-supported video system. Each well of the titre plate is lined with a circular filter paper or another suitable carrier material. The substance of formula I to be tested is dissolved in methanol, acetonitrile or another suitable solvent, with ultrasound treatment and heating being employed for poorly-soluble substances. In an amount of 1 to 100 μg/cm^2, the dissolved test substance is placed in the centre of the filter paper on a quadrant or circular area of ca. 2.4 cm^2 radius. 4 of the 6 wells are filled with different test substances or with the same test substance in different dilutions (e.g. 1, 3.2, 5, 10 and 20 μg/cm^2). The 5th well is treated with DEET (N,N-diethyl-m-toluamide) as standard substance. The 6th well is filled with the pure solvent and serves as a control. 60 to 100 larvae or 25 to 50 nymphs or 10 to 25 adults of the parasite to be tested, e.g. ticks, are added to each filter paper, and the system is covered with a pane of glass and positioned under a video camera.
At intervals of 5 seconds, the video camera takes individual pictures of all 6 wells. For a qualitative evaluation, these images are observed in a time-lapse as a continuous film, optically following the movements of the parasites on the filter paper and comparing them with the movements in the control well no. 6 or with the standard in the 5th well. A qualitative observation is thus made as to whether the test parasites move evenly over the whole surface of the filter paper and ignore the test substance, or whether and over what period they avoid the treated zone, and what influence the dilution of the test substance has on the behaviour of the test parasites. In this way, neutral and deterring substances are determined. At the same time, the duration of activity of the test substance is determined and compared with that of the standard. By plotting all the images for each individual well over one another, different areas of density are obtained. This represents the frequency at which the parasites visit certain places. This frequency is evaluated statistically and thus quantitatively by the Willcoxon method in a comparison with the control and with the standard.

[2] = system: Amblyomma hebraeum or variegatum (nymphs); assay: Arena test in vitro against Amblyomma hebraeum or variegatum (nymphs); conditions: ca. 25 to 50 per well, video evaluation
Method: This method is carried out in titre plates having 6 wells with a cross-section of 5 cm each, using a computer-supported video system. Each well of the titre plate is lined with a circular filter paper or another suitable carrier material. The substance of formula I to be tested is dissolved in methanol, acetonitrile or another suitable solvent, with ultrasound treatment and heating being employed for poorly-soluble substances. In an amount of 1 to 100 μg/cm^2, the dissolved test substance is placed in the centre of the filter paper on a quadrant or circular area of ca. 2.4 cm^2 radius. 4 of the 6 wells are filled with different test substances or with the same test substance in different dilutions (e.g. 1, 3.2, 5, 10 and 20 μg/cm^2). The 5th well is treated with DEET (N,N-diethyl-m-toluamide) as standard substance. The 6th well is filled with the pure solvent and serves as a control. 60 to 100 larvae or 25 to 50 nymphs or 10 to 25 adults of the parasite to be tested, e.g. ticks, are added to each filter paper, and the system is covered with a pane of glass and positioned under a video camera. At intervals of 5 seconds, the video camera takes individual pictures of all 6 wells. For a qualitative evaluation, these images are observed in a time-lapse as a continuous film, optically following the movements of the parasites on the filter paper and comparing them with the movements in the control well no. 6 or with the standard in the 5th well. A qualitative observation is thus made as to whether the test parasites move evenly over the whole surface of the filter paper and ignore the test substance, or whether and over what period they avoid the treated zone, and what influence the dilution of the test substance has on the behaviour of the test parasites. In this way, neutral and deterring substances are determined. At the same time, the duration of activity of the test substance is determined and compared with that of the standard. By plotting all the images for each individual well over one another, different areas of density are obtained. This represents the frequency at which the parasites visit certain places. This frequency is evaluated statistically and thus quantitatively by the Willcoxon method in a comparison with the control and with the standard. […] Arena Test In Vitro Against Amblyomma hebraeum or variegatum (nymphs) The test is carried out as described above, with ca. 25 to 50 nymphs being added per well. 10 mg of dissolved test substance is applied to an area of 2.4 cm^2 radius. […] Particularly marked long-term activity is shown for example by using the compounds Nos. 1.001, 2.001, 3.001, 4.001, 5.001, 5.184, 5.185, and 5.186 even up to a dilution of 3.2 μg/cm^2.

[3] = system: Boophilus microplus Biarra (larvae); assay: Arena test in vitro against Boophilus microplus Biarra (larvae); conditions: ca. 60 to 100 per well, video evaluation
Method: This method is carried out in titre plates having 6 wells with a cross-section of 5 cm each, using a computer-supported video system. Each well of the titre plate is lined with a circular filter paper or another suitable carrier material. The substance of formula I to be tested is dissolved in methanol, acetonitrile or another suitable solvent, with ultrasound treatment and heating being employed for poorly-soluble substances. In an amount of 1 to 100 μg/cm^2, the dissolved test substance is placed in the centre of the filter paper on a quadrant or circular area of ca. 2.4 cm^2 radius. 4 of the 6 wells are filled with different test substances or with the same test substance in different dilutions (e.g. 1, 3.2, 5, 10 and 20 μg/cm^2). The 5th well is treated with DEET (N,N-diethyl-m-toluamide) as standard substance. The 6th well is filled with the pure solvent and serves as a control. 60 to 100 larvae or 25 to 50 nymphs or 10 to 25 adults of the parasite to be tested, e.g. ticks, are added to each filter paper, and the system is covered with a pane of glass and positioned under a video camera. At intervals of 5 seconds, the video camera takes individual pictures of all 6 wells. For a qualitative evaluation, these images are observed in a time-lapse as a continuous film, optically following the movements of the parasites on the filter paper and comparing them with the movements in the control well no. 6 or with the standard in the 5th well. A qualitative observation is thus made as to whether the test parasites move evenly over the whole surface of the filter paper and ignore the test substance, or whether and over what period they avoid the treated zone, and what influence the dilution of the test substance has on the behaviour of the test parasites. In this way, neutral and deterring substances are determined. At the same time, the duration of activity of the test substance is determined and compared with that of the standard. By plotting all the images for each individual well over one another, different areas of density are obtained. This represents the frequency at which the parasites visit certain places. This frequency is evaluated statistically and thus quantitatively by the Willcoxon method in a comparison with the control and with the standard. […] Arena Test In Vitro Against Boophilus microplus Biarra (larvae) The test is carried out as described above, with ca. 60 to 100 larvae being added per well. 10 mg of dissolved test substance is applied to an area of 2.4 cm^2 radius. […] Particularly marked long-term activity is shown for example by using the compounds Nos. 1.001, 2.001, 3.001, 4.001, 5.001, 5.184, 5.185, and 5.186 even up to a dilution of 10 μg/cm^2.

[4] = system: Rhipicephalus sanguineus (nymphs); assay: Arena test in vitro against Rhipicephalus sanguineus (nymphs); conditions: ca. 40 to 50, video evaluation
Method: This method is carried out in titre plates having 6 wells with a cross-section of 5 cm each, using a computer-supported video system. Each well of the titre plate is lined with a circular filter paper or another suitable carrier material. The substance of formula I to be tested is dissolved in methanol, acetonitrile or another suitable solvent, with ultrasound treatment and heating being employed for poorly-soluble substances. In an amount of 1 to 100 μg/cm^2, the dissolved test substance is placed in the centre of the filter paper on a quadrant or circular area of ca. 2.4 cm^2 radius. 4 of the 6 wells are filled with different test substances or with the same test substance in different dilutions (e.g. 1, 3.2, 5, 10 and 20 μg/cm^2). The 5th well is treated with DEET (N,N-diethyl-m-toluamide) as standard substance. The 6th well is filled with the pure solvent and serves as a control. 60 to 100 larvae or 25 to 50 nymphs or 10 to 25 adults of the parasite to be tested, e.g. ticks, are added to each filter paper, and the system is covered with a pane of glass and positioned under a video camera. At intervals of 5 seconds, the video camera takes individual pictures of all 6 wells. For a qualitative evaluation, these images are observed in a time-lapse as a continuous film, optically following the movements of the parasites on the filter paper and comparing them with the movements in the control well no. 6 or with the standard in the 5th well. A qualitative observation is thus made as to whether the test parasites move evenly over the whole surface of the filter paper and ignore the test substance, or whether and over what period they avoid the treated zone, and what influence the dilution of the test substance has on the behaviour of the test parasites. In this way, neutral and deterring substances are determined. At the same time, the duration of activity of the test substance is determined and compared with that of the standard. By plotting all the images for each individual well over one another, different areas of density are obtained. This represents the frequency at which the parasites visit certain places. This frequency is evaluated statistically and thus quantitatively by the Willcoxon method in a comparison with the control and with the standard. […] Arena Test In Vitro Against Rhipicephalus sanguineus (nymphs) A test is carried out analogously to example B using ca. 40 to 50 nymphs. […] In particular, the compounds are notable for their almost complete deterring action, which lasts considerably longer than that of DEET. Particularly marked long-term activity is shown for example by compounds Nos. 1.001, 2.001, 3.001, 4.001, 5.001, 5.184, 5.185, and 5.186 even up to a dilution of 10 μg/cm^2.

In the case of `OCCN(Cc1ccccc1)Cc1ccccc1` [Compound 5.001], the “vermin-deterring activity in the arena test” value (“vermin-deterring activity” for short) [1] is reported as “excellent activity”, the “dilution up to which particularly marked long-term activity is shown” value (“dilution up” for short) [2] is reported as 3.2 μg/cm^2 and the “dilution up” value [3] is reported as 10 μg/cm^2. The “dilution up” value [4] was 10 μg/cm^2.
For `OC1CCCN(Cc2ccccc2)C1` (stereo not drawn) [Compound 4.001], the “vermin-deterring activity” value [1] was “excellent activity”, the “dilution up” value [2] was 3.2 μg/cm^2 and the “dilution up” value [3] was 10 μg/cm^2. The “dilution up” value [4] was 10 μg/cm^2.
`OCC1CCCN1Cc1ccccc1` (stereo not drawn) [Compound 2.001] was tested, and the “vermin-deterring activity” value [1] was “excellent activity”, the “dilution up” value [2] was 3.2 μg/cm^2 and the “dilution up” value [3] was 10 μg/cm^2. The “dilution up” value [4] was 10 μg/cm^2.
With `CC(CO)N(Cc1ccccc1)Cc1ccccc1` (stereo not drawn) [Compound 5.184] the “vermin-deterring activity” value [1] was “excellent activity”, the “dilution up” value [2] was 3.2 μg/cm^2 and the “dilution up” value [3] was 10 μg/cm^2. For the same compound, the “dilution up” value [4] was 10 μg/cm^2.
For `OC1CCN(Cc2ccccc2)C1` (stereo not drawn) [Compound 3.001, 1-Benzyl-pyrrolidin-3-ol], the “vermin-deterring activity” value [1] was “excellent activity”, the “dilution up” value [2] was 3.2 μg/cm^2 and the “dilution up” value [3] was 10 μg/cm^2. For the same compound, the “dilution up” value [4] was 10 μg/cm^2.
For `OCC1CCCCN1Cc1ccccc1` (stereo not drawn) [Compound 1.001], the “vermin-deterring activity” value [1] was “excellent activity”, the “dilution up” value [2] was 3.2 μg/cm^2 and the “dilution up” value [3] was 10 μg/cm^2. For the same compound, the “dilution up” value [4] was 10 μg/cm^2.
